# Assay results from patent US6797711B2, “Benzofuran derivatives and pharmaceutical compositions containing the same” (Pola Chemical Industries, Inc., priority 2000, dated 2004).
row,melting point [°C],SMILES
1,120.5 to 122,"O=C(CC(c1ccccc1)c1ccccc1)N1CCN(Cc2cc3ccccc3o2)CC1 [Compound 6, 1-(benzofuran-2-yl)methyl-4-(3,3-diphenylpropionyl)piperazine]"
2,126.5 to 128,"O=C(/C=C/c1ccccc1)N1CCN(CC(O)c2cc3ccccc3o2)CC1 (centres unmarked) [Compound 1, 1-(2-(benzofuran-2-yl)-2-hydroxy)ethyl-4-cinnamoylpiperazine]"
3,125.5 to 127.5,"O=C(CC(c1ccccc1)c1ccccc1)N1CCN(CC(O)c2cc3ccccc3o2)CC1 (centres unmarked) [Compound 3, 1-(2-(benzofuran-2-yl)-2-hydroxy)ethyl-4-(3,3-diphenylpropionyl)piperazine]"
4,123.3 to 124.1,"O=C(CC(c1ccccc1)c1ccccc1)N1CCN(CCc2cc3ccccc3o2)CC1 [Compound 7, 1-(2-(benzofuran-2-yl)ethyl)-4-(3,3-diphenylpropionyl)piperazine]"
5,130.5 to 132,"O=C(CC(c1ccccc1)c1ccccc1)N1CCN(C(=O)c2cc3ccccc3o2)CC1 [Compound 4, 1-(benzofuran-2-yl)carbonyl-4-(3,3-diphenylpropionyl)piperazine]"
